Counter-ions that a name gives are not always drawn. Like-named read-outs stand apart in the source and are kept apart here.
How the values were obtained:
[1] = tested on: acetylcholine induced abdominal constriction; assay: prevention of acetylcholine induced abdominal constriction in mice; assay type: in vivo; settings: for ED50: Mus musculus, 0.5 h, analgesic alone, oral, mice, acetylcholine challenge 30 minutes after treatment
Experimental: Mature, male Swiss-Webster mice (weighing 25-30 g) were utilized in determining the analgesic effects of the compositions. The mice were all dosed orally with glucosamine sulfate, which was completely dissolved in distilled water, and a selected analgesic (ibuprofen, diclofenac, tramadol HCl, or acetaminophen), which was completely dissolved in distilled water or in distilled water containing 2% by volume of TWEEN®-80 containing 100% polysorbate 80. Mice were dosed at 10 mL/kg.
The procedure used in detecting and comparing the analgesic activity of different classes of analgesic drugs was the prevention of acetylcholine induced abdominal constriction in mice.
Mice were treated with various doses of glucosamine sulfate alone, analgesic alone, combined doses of glucosamine sulfate and analgesic, or vehicle such as distilled water containing 2% by volume of TWEEN®-80. Intraperitoneal injection of a challenge dose of acetylcholine bromide was administered 30 minutes after treatment. […] For scoring purposes an “abdominal constriction” was defined as a contraction of the abdominal musculature accompanied by arching of the back and extension of the limbs. […] Each mouse was tested only once.
Doses of the combinations were coded to permit complete randomization of the tests.

[2] = tested on: acetylcholine induced abdominal constriction; assay: as above; assay type: in vivo

Question: For CC(=O)Nc1ccc(O)cc1 [Acetaminophen], which No. protected/no. tested ([1]; acetaminophen 62.5 mg/kg alone) is on record?
Answer: 1/10

Question: What about the No. protected/no. tested ([1]; acetaminophen 125 mg/kg alone) of the same compound?
Answer: 4/10

Question: What about the No. protected/no. tested ([1]; acetaminophen 250 mg/kg alone) of the same compound?
Answer: 8/10

Question: What does the source list for CC(=O)Oc1ccccc1C(=O)O [Aspirin]?
Answer: No. protected/no. tested ([2]; ASA 50 mg/kg alone): 1/10; No. protected/no. tested ([2]; ASA 100 mg/kg alone): 4/10; No. protected/no. tested ([2]; ASA 150 mg/kg alone): 8/10; No. protected/no. tested ([2]; ASA 200 mg/kg alone): 7/10; ED50 [1]: 109 mg/kg

Question: For O=C(O)Cc1ccccc1Nc1c(Cl)cccc1Cl [Diclofenac], which ED50 [1] is on record?
Answer: 1.14 mg/kg

Question: Which No. protected/no. tested ([2]; ibuprofen 27.8 mg/kg alone) does the source give for CC(C)Cc1ccc(C(C)C(=O)O)cc1 (centres unmarked) [Ibuprofen, 2-(p-isobutylphenyl)propionic acid] here?
Answer: 6/10

Question: And the No. protected/no. tested ([2]; ibuprofen 30.0 mg/kg alone)?
Answer: 6/10

Question: What about the ED50 [1] of the same compound?
Answer: 26.1 ± 3.41 mg/kg

Question: And the No. protected/no. tested ([1]; ibuprofen 10 mg/kg alone)?
Answer: 1/10

Question: What about the No. protected/no. tested ([1]; ibuprofen 13.91 mg/kg alone) of the same compound?
Answer: 1/10

Question: And the No. protected/no. tested ([1]; ibuprofen 20.0 mg/kg alone)?
Answer: 4/10

Question: And the No. protected/no. tested ([1]; ibuprofen 41.74 mg/kg alone)?
Answer: 8/10

Question: And the No. protected/no. tested ([1]; ibuprofen 100 mg/kg alone)?
Answer: 9/10

Question: With COc1ccc2c(c1)c(CC(=O)O)c(C)n2C(=O)c1ccc(Cl)cc1 [Indomethacin] as the compound, how does the No. protected/no. tested ([2]; indomethacin 2.5 mg/kg alone) read?
Answer: 4/10

Question: What about the No. protected/no. tested ([2]; indomethacin 5.0 mg/kg alone) of the same compound?
Answer: 6/10

Question: And the No. protected/no. tested ([2]; indomethacin 10.0 mg/kg alone)?
Answer: 7/10

Question: What about the ED50 [1] of the same compound?
Answer: 3.66 mg/kg

Question: What does the source list for CC(C)Cc1ccc([C@H](C)C(=O)O)cc1 [S(+) Ibuprofen]?
Answer: No. protected/no. tested ([2]; Group A: S(+) ibuprofen 15 mg/kg alone): 2/10; No. protected/no. tested ([2]; Group B: S(+) ibuprofen 30 mg/kg alone): 4/10; No. protected/no. tested ([2]; Group C: S(+) ibuprofen 60 mg/kg alone): 6/10; No. protected/no. tested ([2]; Group D: S(+) ibuprofen 120 mg/kg alone): 7/10

Question: With COc1cccc(C2(O)CCCCC2CN(C)C)c1 (centres unmarked) [Tramadol HCl] as the compound, how does the ED50 ([2]; Mus musculus, 0.5 h, read-out: ED50 (alone)) read?
Answer: 8.05 mg/kg

— patent US6900189B2, “Analgesic and glucosamine compositions” (priority 2000, dated 2005)
